Assay results reported in publication PMC3199744, “Preformulation and stability in biological fluids of the retrocyclin RC-101, a potential anti-HIV topical microbicide” (AIDS Research and Therapy, 2011).

What was measured:
[1] = Stability in HVF positive for bacterial vaginosis (HVF BV+), detection by LC-MS/MS; details: for detection of RC-101 by LC-MS/MS: nanoLC-SRM MS, qualitative
Protocol: After removing the Instead Softcup®, a speculum examination was performed. Swab specimens of the endocervix were obtained using the Mini-tip Culturette TN collection system (Becton Dickinson, Sparks, MD) according to the manufacturer's guidelines. C. trachomatis and N. gonorrhoeae were detected with an amplified DNA assay based on the simultaneous amplification and detection of target DNA amplification primers and a fluorescent label detector probe. Bacterial vaginosis was detected by Gram stain and assessed by the Nugent score, where score results between 0 and 3 indicate a normal flora, between 4 and 6 indicates an intermediate state, and between 7 and 10 indicates bacterial vaginosis.
The HVF from the Instead Softcup® was removed by centrifugation of the conical tube for 10 min at 5,000 rpm. […] HVF was then removed from the cup and the pH of each HVF sample was measured with Fisher Alkacid pH filter strips (Fisher Scientific). All samples collected on a specific day were pooled to be used for the research studies. If the pH of the individual samples was higher than 5, the sample was not included in the pool but it was stored at -80°C for separate analysis. If the sample contained blood, it was immediately discarded. Samples were prepared as described in Table 1. […] Because of its high viscosity, HVF was measured by weight and not by volume. All solutions were prepared fresh and incubated with HVF (or water) at 37°C for specific periods of time (0, 2, 6, 12, 24, 48, and 72 h), unless specified otherwise. At each time point, the samples were centrifuged at 10,000 rpm for 10 min to separate the supernatant from the epithelial cells as described in the cell processing section. Both parts (supernatant and cells) were stored at -80 ± C until analyzed by LC-MS/MS. To evaluate the influence of freezing the fluid prior to the analysis, the last pool of HVF was divided into two samples: one used fresh (at the time of collection), and the other one stored at -80°C for a 3-month period. After that time period, HVF was thawed and processed for blank and RC-101 solution only, as described in Table 1. HVF samples collected with a high pH value indicative of BV were stored at -80°C as previously mentioned. After confirmation of BV on those fluid samples by Gram stain score, the fluid samples (HVF BV^+) were thawed, pooled, and processed as described in Table 1.
At each time point, the sample was removed from the incubation chamber and centrifuged for 10 min at 10,000 rpm, at 4 ± C to separate the supernatant from cell pellet. Supernatant (100 μL) was added to microcentrifuge filters Ultracel YM-10 Microcon MWCO 10,000 (Millipore Corporation, Bedford, MA), which were pre-washed with Milli Q water to eliminate any trace of propylene glycol from the filters. Samples were centrifuged twice for 15 min at 8,500 rpm, at 4 ± C. The filtrate was collected and frozen at -80 ± C until further analysis. A solution of 3 M urea was added to the cell pellet (1:1 w/w) obtained from the first centrifugation, to lyse the cells. This mixture was vortexed three times for 30 sec, and then centrifuged for 10 min at 10,000 rpm, at 4 ± C. The supernatant obtained from the cell lysate was then added to microcentrifuge filters Ultracel YM-10 Microcon MWCO 10,000 pre-washed with Milli Q water. Samples were centrifuged twice for 15 min at 8,500 rpm, at 4 ± C. The filtrate was collected and frozen at -80 ± C until analysis. […] Samples were thawed and added to PepCleanTM C-18 spin columns (Pierce Biotechnology Inc., Rockford, IL) for desalting, after column conditioning with acetonitrile:water (50:50) and equilibration with 0.1% trifluoroacetic acid. The column was washed three times with 0.1% trifluoroacetic acid, and RC-101 was eluted with acetonitrile:water (60:40) in 0.1% trifluoroacetic acid.

[2] = UV spectroscopy for aggregation / ionic strength effect; assay type: physicochemical
Protocol: Changes in the secondary structure of the protein were monitored by Circular dichroism (CD) on an AVIV Circular Dichroism spectrophotometer model 202 (AVIV Biomedical, Lakewood, NJ) equipped with a 0.1 cm path length quartz cell. RC-101 stability was also monitored by using a matrix-assisted laser desorption ionization-time of flight (MALDI-TOF) mass spectrometric (MS) on a Voyager DE-PRO mass spectrometer (Applied Biosystems, Foster City, CA). Potential for aggregation was evaluated by UV-spectroscopy using a NanoDrop ND-1000 spectrophotometer (NanoDrop Technologies Inc, Wilmington, DE).

HIV-1 = details: RC-101 at pH 7, data not shown

GICRCICGKGICRCICGR (bicyclic or more) [RC-101]
detection of RC-101 by LC-MS/MS ([1]; HVF BV+ pool 1:1, 37°C, 2 h): -
detection of RC-101 by LC-MS/MS ([1]; HVF BV+ pool 1:1, 37°C, 6 h): -
detection of RC-101 by LC-MS/MS ([1]; HVF BV+ pool 1:1, 37°C, 12 h): -
detection of RC-101 by LC-MS/MS ([1]; HVF BV+ pool 1:1, 37°C, 24 h): -
detection of RC-101 by LC-MS/MS ([1]; HVF BV+ pool 1:1, 37°C, 48 h): -
detection of RC-101 by LC-MS/MS ([1]; HVF BV+ pool (pH 5.8 ± 0.6, stored -80°C) 1:1, 37°C, 0 h): -
detection of RC-101 in HVF BV+ ([1]; HVF BV+ pool (stored -80°C), any time point studied, supernatant or cells, 37°C, LC-MS/MS): undetectable
aggregation (increase in UV absorbance 300 to 600 nm) ([2]; 500 μg/mL, phosphate buffer pH 12, UV scan (data not shown)): presence of aggregates
stability profile with high ionic strength buffers ([2]; UV spectroscopy, pH 4 and 7, high ionic strength (500 mmol/kg) phosphate buffers): did not show any significant differences
effect of the folding change at pH 7 on bioactivity against HIV-1 (HIV-1): did not affect bioactivity
